Results published in the NIST ThermoML archive (doi:10.1016/j.fluid.2015.07.030).

Experiment: refractive index (other wavelength) (dimensionless); xn = mol fraction of the nth substance listed
Settings: 95.99 kPa, Liquid, Standard Abbe refractometry

OCCOCCOCCO [triethylene glycol] + O
Settings	refractive index
298.15 K, Wavelength=644 nm, x2 = 0.9708	1.35412
298.15 K, Wavelength=644 nm, x2 = 0.979	1.34905
298.15 K, Wavelength=644 nm, x2 = 0.9867	1.34308
298.15 K, Wavelength=644 nm, x2 = 0.9936	1.3369
298.15 K, Wavelength=706.5 nm, x2 = 0	1.45075
298.15 K, Wavelength=706.5 nm, x2 = 0.1056	1.44937
298.15 K, Wavelength=706.5 nm, x2 = 0.2069	1.44768
298.15 K, Wavelength=706.5 nm, x2 = 0.3104	1.44445
298.15 K, Wavelength=706.5 nm, x2 = 0.4844	1.44065
298.15 K, Wavelength=706.5 nm, x2 = 0.5016	1.43966
298.15 K, Wavelength=706.5 nm, x2 = 0.5952	1.43307
298.15 K, Wavelength=706.5 nm, x2 = 0.6016	1.4331
298.15 K, Wavelength=706.5 nm, x2 = 0.6788	1.42668
298.15 K, Wavelength=706.5 nm, x2 = 0.7835	1.41733
298.15 K, Wavelength=706.5 nm, x2 = 0.8184	1.41213
298.15 K, Wavelength=706.5 nm, x2 = 0.8473	1.40596
298.15 K, Wavelength=706.5 nm, x2 = 0.8719	1.39912
298.15 K, Wavelength=706.5 nm, x2 = 0.8926	1.39147
298.15 K, Wavelength=706.5 nm, x2 = 0.9106	1.38588
298.15 K, Wavelength=706.5 nm, x2 = 0.9254	1.37553
298.15 K, Wavelength=706.5 nm, x2 = 0.9303	1.37697
298.15 K, Wavelength=706.5 nm, x2 = 0.9391	1.3729
298.15 K, Wavelength=706.5 nm, x2 = 0.951	1.3662
298.15 K, Wavelength=706.5 nm, x2 = 0.9599	1.36035
298.15 K, Wavelength=706.5 nm, x2 = 0.9708	1.35254
298.15 K, Wavelength=706.5 nm, x2 = 0.979	1.34751
298.15 K, Wavelength=706.5 nm, x2 = 0.9867	1.34153
298.15 K, Wavelength=706.5 nm, x2 = 0.9936	1.3354
303.15 K, Wavelength=404.7 nm, x2 = 0	1.4657
303.15 K, Wavelength=404.7 nm, x2 = 0.1056	1.4643
303.15 K, Wavelength=404.7 nm, x2 = 0.2069	1.46262
303.15 K, Wavelength=404.7 nm, x2 = 0.3104	1.45889
303.15 K, Wavelength=404.7 nm, x2 = 0.4844	1.45533
303.15 K, Wavelength=404.7 nm, x2 = 0.5016	1.45432
303.15 K, Wavelength=404.7 nm, x2 = 0.5952	1.44749
303.15 K, Wavelength=404.7 nm, x2 = 0.6016	1.44759
303.15 K, Wavelength=404.7 nm, x2 = 0.6788	1.44091
303.15 K, Wavelength=404.7 nm, x2 = 0.7835	1.4314
303.15 K, Wavelength=404.7 nm, x2 = 0.8184	1.42604
303.15 K, Wavelength=404.7 nm, x2 = 0.8473	1.41954
303.15 K, Wavelength=404.7 nm, x2 = 0.8719	1.41258
303.15 K, Wavelength=404.7 nm, x2 = 0.8926	1.4048
303.15 K, Wavelength=404.7 nm, x2 = 0.9106	1.39915
303.15 K, Wavelength=404.7 nm, x2 = 0.9254	1.38867
303.15 K, Wavelength=404.7 nm, x2 = 0.9303	1.38901
303.15 K, Wavelength=404.7 nm, x2 = 0.9391	1.38606
303.15 K, Wavelength=404.7 nm, x2 = 0.951	1.37929
303.15 K, Wavelength=404.7 nm, x2 = 0.9599	1.37327
303.15 K, Wavelength=404.7 nm, x2 = 0.9708	1.3651
303.15 K, Wavelength=404.7 nm, x2 = 0.979	1.36001
303.15 K, Wavelength=404.7 nm, x2 = 0.9867	1.3539
303.15 K, Wavelength=404.7 nm, x2 = 0.9936	1.3476
303.15 K, Wavelength=435.8 nm, x2 = 0	1.46213
303.15 K, Wavelength=435.8 nm, x2 = 0.1056	1.46075
303.15 K, Wavelength=435.8 nm, x2 = 0.2069	1.4591
303.15 K, Wavelength=435.8 nm, x2 = 0.3104	1.45541
303.15 K, Wavelength=435.8 nm, x2 = 0.4844	1.4519
303.15 K, Wavelength=435.8 nm, x2 = 0.5016	1.4509
303.15 K, Wavelength=435.8 nm, x2 = 0.5952	1.44412
303.15 K, Wavelength=435.8 nm, x2 = 0.6016	1.44421
303.15 K, Wavelength=435.8 nm, x2 = 0.6788	1.43757
303.15 K, Wavelength=435.8 nm, x2 = 0.7835	1.4281
303.15 K, Wavelength=435.8 nm, x2 = 0.8184	1.4228
303.15 K, Wavelength=435.8 nm, x2 = 0.8473	1.41636
303.15 K, Wavelength=435.8 nm, x2 = 0.8719	1.40944
303.15 K, Wavelength=435.8 nm, x2 = 0.8926	1.40173
303.15 K, Wavelength=435.8 nm, x2 = 0.9106	1.39612
